How the values were obtained:
Lp-PLA2 in human plasma = target: T1, Lp-PLA2 in human plasma (Homo sapiens, UniProt Q13093); test: (3a) Lp-PLA2 human plasma Thio-PAF assay; assay type: biochemical; conditions: (3a) Thio-PAF assay, pooled human plasma; Examples 1-265 and 413-430 were tested here; read-out: pIC50 in the Lp-PLA2 human plasma assay (converted)
T1 construct: from tissue; host or cells: pooled human plasma
T1 sequence (Q13093 22-441): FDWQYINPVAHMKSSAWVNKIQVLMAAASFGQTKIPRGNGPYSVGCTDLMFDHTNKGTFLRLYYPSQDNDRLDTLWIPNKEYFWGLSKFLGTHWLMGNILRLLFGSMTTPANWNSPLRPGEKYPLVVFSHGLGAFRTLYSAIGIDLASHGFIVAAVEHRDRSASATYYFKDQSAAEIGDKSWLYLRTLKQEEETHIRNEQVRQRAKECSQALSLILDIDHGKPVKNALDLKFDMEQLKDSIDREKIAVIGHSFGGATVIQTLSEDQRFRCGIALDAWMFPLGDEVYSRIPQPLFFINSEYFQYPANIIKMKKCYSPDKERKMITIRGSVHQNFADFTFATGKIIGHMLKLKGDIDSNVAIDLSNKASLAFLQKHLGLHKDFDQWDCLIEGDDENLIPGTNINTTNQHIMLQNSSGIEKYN
Method in brief: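 Endogenous Lp-PLA2 activity in frozen pooled human plasma measured as thiol release from 2-thio-PAF, detected by CPM fluorescence (ex 380/em 485). Compound preincubation 30 min; 2-min reaction in HEPES pH 7.4 buffer with NEM, stopped with 5% TFA, read 40 min later at room temperature; values as pIC50.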

[1] = target: T2, recombinant human Lp-PLA2 (Homo sapiens, UniProt Q13093); test: (1a) PED6 assay, recombinant human Lp-PLA2 (rhLp-PLA2); assay type: biochemical; conditions: Examples 1-167 and 413-430 were tested here, one experiment or average of multiple experiments, read-out: rhLp-PLA2 (pIC50) (converted)
T2 sequence (Q13093 22-441): T1 sequence (Q13093 22-441)
Method in brief: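 PED6 (2 μM final after 1:1 addition of 4 μM stock) cleavage by rhLp-PLA2 (4 nM working solution) in 50 mM HEPES pH 7.4, 150 mM NaCl, 1 mM CHAPS; compounds preincubated with enzyme 30 minutes, reaction 20 min at room temperature. Fluorescence at ex 480/em 540; pIC50 from curve fit.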

IC50 (Lp-PLA2 in human plasma) [nM]	IC50 [1] [nM]	Compound
≤ 100	≤ 1	O=c1nc(OCc2ccc(Oc3cncc(C(F)(F)F)c3)c(F)c2)cc2n1C[C@@H]1CCCCN21 [Example E42, (S)-3-((3-fluoro-4-((5-(trifluoromethyl)pyridin-3-yl)oxy)benzyl)oxy)-6,7,8,9,9a,10-hexahydro-1H-pyrido[1′,2′:3,4]imidazo[1,2-c]pyrimidin-1-one]
≤ 10000	≤ 100	Cn1cc(Oc2c(F)cc(COc3cc4n(c(=O)n3)C[C@H]3COCN43)cc2F)cn1 [Example E143, (S)-6-((3,5-difluoro-4-((1-methyl-1H-pyrazol-4-yl)oxy)benzyl)oxy)-10,10a-dihydro-1H-oxazolo[3′,4′:3,4]imidazo[1,2-c]pyrimidin-8(3H)-one]
≤ 10000	≤ 100	CN1c2cc(OCc3cc(F)c(F)cc3F)nc(=O)n2CC12CCC2 [Example 429, 1-methyl-7′-((2,4,5-trifluorobenzyl)oxy)-1′H-spiro[cyclobutane-1,2′-imidazo[1,2-c]pyrimidin]-5′(3′H)-one]
≤ 10000	≤ 100	O=c1nc(OCc2cc(F)cc(F)c2)cc2n1CC1CCCCN21 (centres unmarked) [Example E3, 3-((3,5-Difluorobenzyl)oxy)-6,7,8,9,9a,10-hexahydro-1H-pyrido[1′,2′:3,4]imidazo-[1,2-c] pyrimidin-1-one]
≤ 10000	≤ 100	Cn1cc(Oc2ccc(COc3cc4n(c(=O)n3)C[C@@H]3CCCCN43)cc2F)cn1 [Example E51, (S)-3-((3-fluoro-4-((1-methyl-1H-pyrazol-4-yl)oxy)benzyl)oxy)-6,7,8,9,9a,10-hexahydro-1H-pyrido[1,2′:3,4]imidazo[1,2-c]pyrimidin-1-one]
≤ 10000	≤ 100	O=c1nc(OCc2ccc(F)cc2F)cc2n1C[C@@H]1COCCN21 [Example E130, (R)-7-((2,4-difluorobenzyl)oxy)-3,4,11,11a-tetrahydropyrimido[6′,1′:2,3]imidazo[5,1-c][1,4] oxazin-9(1H)-one]
≤ 10000	≤ 100	N#Cc1cc(F)cc(COc2cc3n(c(=O)n2)CC2CCCCN32)c1 (centres unmarked) [Example E15, 3-Fluoro-5-(((1-oxo-6,7,8,9,9a,10-hexahydro-1H-pyrido[1′,2′:3,4]imidazo[1,2-c]pyrimidin-3-yl)oxy)methyl)benzonitrile]
≤ 10000	≤ 100	Cc1cc(Oc2c(F)cc(COc3cc4n(c(=O)n3)C[C@H]3COCN43)cc2F)ccn1 [Example E161, (S)-6-((3,5-difluoro-4-((2-methylpyridin-4-yl)oxy)benzyl)oxy)-10,10a-dihydro-1H-oxazolo[3′,4′:3,4]imidazo[1,2-c]pyrimidin-8(3H)-one]
≤ 10000	≤ 100	CN1CCN2c3cc(OCc4cc(F)c(Oc5cnn(C)c5)c(F)c4)nc(=O)n3CC2C1 (centres unmarked) [Example E167, 7-((3,5-Difluoro-4-((1-methyl-1H-pyrazol-4-yl)oxy)benzyl)oxy)-2-methyl-3,4,11,11a-tetrahydro-1H-pyrazino[1,2′:3,4]imidazo[1,2-c]pyrimidin-9(2H)-one]
≤ 100	≤ 1	O=c1nc(OCc2cc(F)c(Oc3ccnc(C(F)(F)F)c3)c(F)c2)cc2n1CC1OCCN21 (single isomer, unassigned) [Example E164, 6-((3,5-difluoro-4-((2-(trifluoromethyl)pyridin-4-yl)oxy)benzyl)oxy)-10,10a-dihydro-2H-oxazolo[3′,2′:3,4]imidazo[1,2-c]pyrimidin-8(3H)-one]
≤ 10000	≤ 100	O=c1nc(OCc2cnc(Oc3ccc(Cl)c(C(F)(F)F)c3)c(F)c2)cc2n1CC1CCCN21 (centres unmarked) [Example E76, 3-((6-(4-Chloro-3-(trifluoromethyl)phenoxy)-5-fluoropyridin-3-yl)methoxy)-7,8,8a,9 tetra hydro pyrrolo[1′,2′:3,4]imidazo[1,2-c]pyrimidin-1(6H)-one]
≤ 10000	≤ 100	CCCn1cc(Oc2c(F)cc(COc3cc4n(c(=O)n3)C[C@@H]3COCN43)cc2F)cn1 [Example E156, (R)-6-((3,5-difluoro-4-((1-propyl-1H-pyrazol-4-yl)oxy)benzyl)oxy)-10,10a-dihydro-1H-oxazolo[3′,4′:3,4]imidazo[1,2-c]pyrimidin-8(3H)-one]
≤ 100	≤ 100	O=c1nc(OCc2ccc(Oc3cnc(C(F)(F)F)nc3)c(F)c2)cc2n1CC1CCCCN21 (centres unmarked) [Example E43, 3-((3-fluoro-4-((2-(trifluoromethyl)pyrimidin-5-yl)oxy)benzyl)oxy)-6,7,8,9,9a,10-hexahydro-1H-pyrido[1′,2′:3,4]imidazo[1,2-c]pyrimidin-1-one]
≤ 100	≤ 1	O=c1nc(OCc2cc(F)c(Oc3ccnc(C(F)(F)F)c3)c(F)c2)cc2n1C[C@@H]1COCN21 [Example E142, (R)-6-((3,5-difluoro-4-((2-(trifluoromethyl)pyridin-4-yl)oxy)benzyl)oxy)-10,10a-dihydro-1H-oxazolo[3′,4′:3,4]imidazo[1,2-c]pyrimidin-8(3H)-one]
≤ 100	≤ 1	O=c1nc(OCc2ccc(Oc3cnc(C(F)(F)F)nc3)c(F)c2)cc2n1CC1CCCCN21 (centres unmarked) [Example E46, 3-((3-Fluoro-4-((2-(trifluoromethyl)pyrimidin-5-yl)oxy)benzyl)oxy)-6,7,8,9,9a,10-hexahydro-1H-pyrido[1′,2′:3,4]imidazo[1,2-c]pyrimidin-1-one]
≤ 10000	≤ 100	O=c1nc(OCc2ccc(F)cc2F)cc2n1C[C@@H]1CCCCN21 [Example E57, (S)-3-((2,4-Difluorobenzyl)oxy)-6,7,8,9,9a,10-hexahydro-1H-pyrido[1′,2′:3,4]imidazo[1,2-c] pyrimidin-1-one]
≤ 100	≤ 1	O=c1nc(OCc2cc(F)c(Oc3cnn(C(F)(F)F)c3)c(F)c2)cc2n1C[C@H]1COCN21 [Example E151, (S)-6-((3,5-difluoro-4-((1-(trifluoromethyl)-1H-pyrazol-4-yl)oxy)benzyl)oxy)-10,10a-dihydro-1H-oxazolo[3′,4′:3,4]imidazo[1,2-c]pyrimidin-8(3H)-one]
≤ 10000	≤ 100	O=c1nc(OCc2cccc(F)c2F)cc2n1C[C@@H]1CCCCN21 [Example E58, (S)-3-((2,3-Difluorobenzyl)oxy)-6,7,8,9,9a,10-hexahydro-1H-pyrido[1′,2′:3,4]imidazo[1,2-c] pyrimidin-1-one]
≤ 10000	≤ 100	O=c1nc(OCc2ccc(Cl)c(F)c2)cc2n1C[C@H]1COCN21 [Example E145, (S)-6-((4-chloro-3-fluorobenzyl)oxy)-10,10a-dihydro-1H-oxazolo[3′,4′:3,4]imidazo[1,2-c] pyrimidin-8(3H)-one]
≤ 10000	≤ 100	O=c1nc(OCc2cccc(F)c2F)cc2n1C[C@H]1CCCCN21 [Example E56, (R)-3-((2,3-Difluorobenzyl)oxy)-6,7,8,9,9a,10-hexahydro-1H-pyrido[1′,2′:3,4]imidazo[1,2-c] pyrimidin-1-one]
≤ 100	≤ 1	O=c1nc(OCc2ccc(Oc3ccnc(C(F)(F)F)c3)c(F)c2)cc2n1C[C@@H]1CCCCN21 [Example E40, (S)-3-((3-Fluoro-4-((2-(trifluoromethyl)pyridin-4-yl)oxy)benzyl)oxy)-6,7,8,9,9a,10-hexahydro-1H-pyrido[1′,2′:3,4]imidazo[1,2-c]pyrimidin-1-one]
≤ 100	≤ 1	N#Cc1ccc(Oc2ccc(COc3cc4n(c(=O)n3)CC3CCCCN43)cc2C#N)cc1Cl (centres unmarked) [Example E20, 2-Chloro-4-(2-cyano-4-(((1-oxo-6,7,8,9,9a,10-hexahydro-1H-pyrido[1′,2′:3,4]imidazo[1,2-c]pyrimidin-3-yl)oxy)methyl)phenoxy)benzonitrile]
≤ 100	≤ 100	O=c1nc(OCc2cc(F)c(F)c(F)c2)cc2n1CC1CCCCN21 (centres unmarked) [Example E2, 3-((3,4,5-Trifluorobenzyl)oxy)-6,7,8,9,9a,10-hexahydro-1H-pyrido[1′,2′:3,4]imidazo[1,2-c] pyrimidin-1-one]
≤ 100	≤ 100	CN1c2cc(OCc3cccc(F)c3F)nc(=O)n2CC12CCCC2 [Example 426, 7′4(2,3-difluorobenzyhoxy)-1-methyl-1H-spiro[cyclopentane-1,2′-imidazo[1,2-c]pyrimidin]-5′(3′H)-one]
≤ 100	≤ 1	N#Cc1cc(COc2cc3n(c(=O)n2)CC2CCCCN32)ccc1Oc1cncc(C(F)(F)F)c1 (centres unmarked) [Example E10, 5-(((1-Oxo-6,7,8,9,9a,10-hexahydro-1H-pyrido[1′,2′:3,4]imidazo[1,2-c]pyrimidin-3-yl)oxy)methyl)-2-((5-(trifluoromethyl)pyridin-3-yl)oxy)benzonitrile]

Reference: patent US11999746B2, “Compounds” (GlaxoSmithKline Intellectual Property Development Limited, priority 2014, dated 2024)
